Measurements reported in PubChem BioAssay AID2060895 (Molecular Pharmacology Branch, DTP, NCI, 2025).
One block for each molecule: values may come before it.

Tested on: PDC 899932-113-R3-J6 complex spheroid viability
Assay: Anticancer human tumor 899932-113-R3-J6-PDC patient-derived melanoma cell line growth inhibition [RAS]
Details: for IC50: curve of first compound; for viability, T/C: stronger effect = lower value
Summary of the method: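 Multi-cell-type spheroids: tumor cells plus HUVEC endothelial cells and mesenchymal stem cells. RAS-pathway inhibitors were combined with targeted agents, each dosed in half-log steps down from clinical Cmax, or from 10 microM when Cmax was unknown.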

[1] = second compound 0.000949 µM, first compound 0.00316 µM
[2] = second compound 0.000949 µM, first compound 0.01 µM
[3] = second compound 0.000949 µM, first compound 0.0316 µM
[4] = second compound 0.000949 µM, first compound 0.1 µM
[5] = second compound 0.003 µM, first compound 0.00316 µM
[6] = second compound 0.003 µM, first compound 0.01 µM
[7] = second compound 0.003 µM, first compound 0.0316 µM
[8] = second compound 0.003 µM, first compound 0.1 µM
[9] = second compound 0.00949 µM, first compound 0.00316 µM
[10] = second compound 0.00949 µM, first compound 0.01 µM
[11] = second compound 0.00949 µM, first compound 0.0316 µM
[12] = second compound 0.00949 µM, first compound 0.1 µM
[13] = second compound 0.03 µM, first compound 0.00316 µM
[14] = second compound 0.03 µM, first compound 0.01 µM
[15] = second compound 0.03 µM, first compound 0.0316 µM
[16] = second compound 0.03 µM, first compound 0.1 µM
[17] = second compound 0.0949 µM, first compound 0.00316 µM
[18] = second compound 0.0949 µM, first compound 0.01 µM
[19] = second compound 0.0949 µM, first compound 0.0316 µM
[20] = second compound 0.0949 µM, first compound 0.1 µM
[21] = second compound 0.3 µM, first compound 0.00316 µM
[22] = second compound 0.3 µM, first compound 0.01 µM
[23] = second compound 0.3 µM, first compound 0.0316 µM
[24] = second compound 0.3 µM, first compound 0.1 µM
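For viability, T/C in this document: spheroids exposed to agents for seven days before readout; 100% = DMSO vehicle control wells.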

- IC50 (second compound 0.000949 µM): > 100 nM
- IC50 (second compound 0.003 µM): > 100 nM
- IC50 (second compound 0.00949 µM): > 100 nM
- IC50 (second compound 0.03 µM): > 100 nM
- IC50 (second compound 0.0949 µM): > 100 nM
- IC50 (second compound 0.3 µM): > 100 nM
Structure (SMILES): CC(C)n1nc(-c2ccc3oc(N)nc3c2)c2c(N)ncnc21 + CCn1c(-c2cccnc2C(C)OC)c2c3cc(ccc31)N1CCOC(CC(NC(=O)C(C(C)C)N(C)C(=O)C3(F)CCN(C(=O)C#CC(C)(C)N(C)C)CC3)C(=O)N3CCCC(N3)C(=O)OCC(C)(C)C2)C1
- viability, T/C (second compound 0.000949 µM, first compound 0.000316 µM): 107%
- viability, T/C (second compound 0.000949 µM, first compound 0.001 µM): 97.1%
- viability, T/C [1]: 101%
- viability, T/C [2]: 85%
- viability, T/C [3]: 60.3%
- viability, T/C [4]: 100%
- viability, T/C (second compound 0.003 µM, first compound 0.000316 µM): 92.3%
- viability, T/C (second compound 0.003 µM, first compound 0.001 µM): 107%
- viability, T/C [5]: 96.7%
- viability, T/C [6]: 82%
- viability, T/C [7]: 65%
- viability, T/C [8]: 102%
- viability, T/C (second compound 0.00949 µM, first compound 0.000316 µM): 105%
- viability, T/C (second compound 0.00949 µM, first compound 0.001 µM): 100%
- viability, T/C [9]: 92.5%
- viability, T/C [10]: 85.6%
- viability, T/C [11]: 65.5%
- viability, T/C [12]: 100%
- viability, T/C (second compound 0.03 µM, first compound 0.000316 µM): 104%
- viability, T/C (second compound 0.03 µM, first compound 0.001 µM): 98.5%
- viability, T/C [13]: 89.3%
- viability, T/C [14]: 86.1%
- viability, T/C [15]: 61%
- viability, T/C [16]: 94.3%
- viability, T/C (second compound 0.0949 µM, first compound 0.000316 µM): 95.2%
- viability, T/C (second compound 0.0949 µM, first compound 0.001 µM): 93.5%
- viability, T/C [17]: 91.3%
- viability, T/C [18]: 76.7%
- viability, T/C [19]: 61.1%
- viability, T/C [20]: 93.1%
- viability, T/C (second compound 0.3 µM, first compound 0.000316 µM): 86.7%
- viability, T/C (second compound 0.3 µM, first compound 0.001 µM): 80.1%
- viability, T/C [21]: 75.6%
- viability, T/C [22]: 57.9%
- viability, T/C [23]: 51.2%
- viability, T/C [24]: 92.9%

- IC50 (second compound 0.000949 µM): 220 nM
- IC50 (second compound 0.003 µM): < 3.16 nM
- IC50 (second compound 0.00949 µM): < 3.16 nM
- IC50 (second compound 0.03 µM): < 3.16 nM
- IC50 (second compound 0.0949 µM): < 3.16 nM
- IC50 (second compound 0.3 µM): < 3.16 nM
Structure (SMILES): CCN1CCN(Cc2ccc(Nc3ncc(F)c(-c4cc(F)c5nc(C)n(C(C)C)c5c4)n3)nc2)CC1 + CCn1c(-c2cc(N3CCN(C)CC3)cnc2C(C)OC)c2c3cc(ccc31)-c1csc(n1)CC(NC(=O)C1CC1C)C(=O)N1CCCC(N1)C(=O)OCC(C)(C)C2
- viability, T/C [1]: 80.5%
- viability, T/C [2]: 75.5%
- viability, T/C [3]: 75.2%
- viability, T/C [4]: 63.3%
- viability, T/C (second compound 0.000949 µM, first compound 0.316 µM): 43.7%
- viability, T/C (second compound 0.000949 µM, first compound 1 µM): 18.3%
- viability, T/C [5]: 38.1%
- viability, T/C [6]: 39.2%
- viability, T/C [7]: 33.3%
- viability, T/C [8]: 30.1%
- viability, T/C (second compound 0.003 µM, first compound 0.316 µM): 23.8%
- viability, T/C (second compound 0.003 µM, first compound 1 µM): 10.2%
- viability, T/C [9]: 4.63%
- viability, T/C [10]: 4.32%
- viability, T/C [11]: 4.31%
- viability, T/C [12]: 3.66%
- viability, T/C (second compound 0.00949 µM, first compound 0.316 µM): 5.16%
- viability, T/C (second compound 0.00949 µM, first compound 1 µM): 6.09%
- viability, T/C [13]: 3.02%
- viability, T/C [14]: 2.66%
- viability, T/C [15]: 2.79%
- viability, T/C [16]: 2.48%
- viability, T/C (second compound 0.03 µM, first compound 0.316 µM): 3.21%
- viability, T/C (second compound 0.03 µM, first compound 1 µM): 2.94%
- viability, T/C [17]: 2.31%
- viability, T/C [18]: 2.1%
- viability, T/C [19]: 2.15%
- viability, T/C [20]: 2.33%
- viability, T/C (second compound 0.0949 µM, first compound 0.316 µM): 2.24%
- viability, T/C (second compound 0.0949 µM, first compound 1 µM): 2.47%
- viability, T/C [21]: 1.97%
- viability, T/C [22]: 2.12%
- viability, T/C [23]: 2.2%
- viability, T/C [24]: 2.05%
- viability, T/C (second compound 0.3 µM, first compound 0.316 µM): 1.76%
- viability, T/C (second compound 0.3 µM, first compound 1 µM): 2.01%
